Earlier results on one compound are cited in patent publication US5824668A, “Formulation for administration of steroid compounds” (priority 1996, dated 1998).

Data set [1] concerns genetically obese and diabetic mice. As to conditions: genetically obese and diabetic mice; cited from earlier work.
For data set [2] the following is noted: humans; cited from earlier work.
In a further data set the test system is female patients. The settings on record: cited from earlier work.
In another data set the test system is genetically obese mice. The settings on record: genetically obese mice, variety of routes; cited from earlier work.
Data set [3] concerns severely diabetic mammals. The settings on record: oral; cited from earlier work.
The test system of the next data set is rats and mice. The settings on record: cited from earlier work.

On to `C[C@]12CC[C@H](O)CC1=CC[C@@H]1[C@@H]2CC[C@]2(C)C(=O)CC[C@@H]12` [DHEA, 3-β-hydroxy-androst-5-en-17-one], for which the development of diabetes entry in data set [1] is “markedly reduced the development of diabetes”. The metabolism result in data set [2] was “metabolized to testosterone (17-β-hydroxy-androst-4-en-3-one) and estradiol”. The acne entry in the data set on female patients was “severe acne”. Besides, the “rate of weight gain” value with genetically obese mice is “decreased the rate of weight gain”. For the same compound, in data set [3], the glucose tolerance entry is listed as “improved glucose tolerance” and the hyperglycemia entry is reported as “restored hyperglycemia to normal levels”. In addition, the “control of diabetes and obesity” value in the data set on rats and mice is “effective in controlling diabetes and obesity”.
